From patent publication US7674464B2, “Intracellular interleukin-1 receptor antagonists” (The University of Tennessee Research Foundation, priority 2004, dated 2010) come the findings set out here.

“Also recorded” adds a separate entry of the source.

One series deals with collagenase (MMP-1). Nature of the series: IL-1β-induced collagenase (MMP-1) production by dermal fibroblasts, ELISA. It is filed as cell-based, human. To be noted: added 2 hours before IL-1β, 48 hrs, IL1β + PBS 1351, PBS + PBS 556. Here is the method: Confluent fibroblast monolayer cultures were treated for 2 hr with IL-1ra peptides and cultured for 48 h with hrIL-1β. Collagenase protein was measured in culture supernatants by ELISA.
Furthermore, the effect of the IL-1ra peptides on the stimulation of MMP-1 and TIMP expression was examined. Briefly, fibroblasts were seeded in wells of Flacon 3008 multiwell plates (5×10^4 cells/500 μl Maintenance Medium). After 72 h culture, the medium was removed from each well and replaced with Maintenance Medium (450 μl) containing 5% FCS and 25 μl of IL-1ra peptides or hrsIL-1ra peptide being tested. Two hrs later 25 μl IL-1β (100 pg/ml) was added to appropriate wells. Plates were incubated for 48 h, at which time medium was collected from each well. Levels of TIMP and collagenase produced by fibroblasts during culture were measured by specific ELISA techniques as previously described (Postlethwaite et al., 1988).
In general terms: In an ELISA, binding on a coated surface is turned into a signal by an enzyme label.

Series [1] deals with collagen-induced arthritis (CIA). The series is described as follows: collagen-induced arthritis in DBA/1 lac mice, peptides by s.c. injection. As to conditions: s.c. 227 μg/kg once daily, 5 consecutive days each week, day 22 to day 50, vs control peptide IL-1ra 37-30. It is filed as in vivo. As to the method: Groups of 12 mice were treated with subcutaneous injections of NLS-IL-1ra 1-35 (SEQ ID NO: 18), NLS-IL-1ra 30-37 ([…]) or IL-1ra 37-30 (SEQ ID NO: 43) as a control beginning day 22 to day 50. Mice were injected once each consecutive 5 days out of each week. Mean arthritic score is shoon. P values are determined by Students' t test.
The peptides disclosed in table 11 were delivered to the mice using 2 approaches. The first approach consisted of daily injections for 5 days each week via the subcutaneous (s.c.) route after the first appearance of clinical arthritis. The second approach consisted of continuous delivery via a subcutaneously implanted osmotic pump. For these studies, the following protocols were used: Since a smaller fragment of the 37 amino acid IL-1ra peptide containing amino acids LVAGY (SEQ ID NO: 42) inhibit IL-1β, TNFα, and bFGF induction of MMP-1 in human fibroblasts in vitro, effects of several peptides containing the LVAGY (SEQ ID NO: 42) sequence (Table 11) on CIA in mice was examined.
For s.c. injected route of delivery, 36 six-week old female DBA-1 lac mice were immunized with a stable emulsion of complete Freund's adjuvant (CFA) and native bovine II prepared as previously described (Seyer et al., 1989). Each mouse received 100 μg CII in 50 μl of the CFA CII emulsion intradermally at the base of the tail. Beginning day 14 post immunization, mice were examined for the presence of paw swelling as an indication of the onset of arthritis. On day 21 post immunization, the first paw swelling occurred in 2 mice and on day 22 post immunization, mice were divided into groups of 12. NLS-IL-1ra 1-35 (SEQ ID NO: 18), NSL-IL-1ra 30-37 (SEQ ID NO: 43), and reverse control peptide IL-1ra 37-30 (SEQ ID NO: 44) were separately administered s.c. to groups of 12 mice beginning on day 22 post immunization to day 50 post immunization. […] Results described herein are expressed as the mean arthritic score per mouse arrived at by adding up the total joint scores for mice in each group divided by the number of mice in the group.

The subject of series [2] is collagenase. Nature of the series: TNF alpha-stimulated fibroblast collagenase production. To be noted: TNF alpha + PBS 9391, PBS 645. It counts as cell-based. As to the method: (§1) To potentially enhance translocation of the peptide, a nuclear localization sequence (NLS), namely, KKKMEKR from human IL-1β was added to the peptide with SEQ ID NO: 13 and the effect of the peptide with and without the NLS on collagenase production was assessed. In this case the cultures were stimulated with TNF-α or basic fibroblast growth factor (bFGF).

Series [3] has as its system collagen-induced arthritis (CIA). Nature of the series: collagen-induced arthritis in DBA/1 mice, peptide by osmotic pump. It counts as in vivo. As to the method:
The mice (total=20) were immunized by subcutaneous injection at the base of the tail with 100 μg/ml of bovine CII in CFA at day 0. At day 20, an Alzet Osmotic pump-2004 containing 1.67 mg NLS-IL-1ra (1-35) peptide (SEQ ID NO: 18) in 200 microliters D5W solvent (n=10) or the solvent alone (n=10) was surgically inserted subcutaneously in each of 10 mice. Beginning at 21 days after immunization, mice were monitored for the severity (FIG. 40A) and incidence (FIG. 40B) of arthritis.
For osmotic pump delivery of peptide, at day 20 following immunization, an Alzet Osmotic pump-2004 (Durect Corporation, Cupertino, Calif.), containing 1.67 mg NLS-ILra 1-35 peptide in 200 microliters D5W solvent was surgically inserted subcutaneously in each of 10 mice. According to the manufacturer's specifications, the pumps are designed to inject constantly for 4 weeks at the speed of […] 6 μl (50 μg peptide)/day. Each of the 10 control mice received a pump containing same amount D5W only. Animals were periodically monitored for incidence and severity of arthritis and scored as described above.

Series [4] relates to collagenase. The series is described as follows: bFGF-stimulated fibroblast collagenase production. It is filed as cell-based. As to conditions: bFGF + PBS 5058, PBS 645. As to the method:
as §1

Another series concerns icIL-1ra type 1 mRNA. The series is described as follows: antisense oligonucleotide against icIL-1ra type 1 in HF-icIL-1ra fibroblasts, MMP-1 mRNA by RT-PCR. To be noted: for MMP-1 mRNA levels: HF-icIL-1ra, vs PBS, empty liposome, scrambled oligonucleotide. It counts as cell-based, human. As to the method:
Phosphorothioate-derivatized antisense oligodeoxynucleotide complimentary to −6 to +12 of the natural icIL-1ra was synthesized and purified by HPLC Integrated DNA Technologies Inc. (Coralville, Iowa). As a control, antisense oligonucleotide with a scrambled sequence was prepared by a similar method. Fibroblasts over-expressing icIL-1ra type 1 were transfected with […] of antisense icIL-1ra type 1 oligonucleotide (24 h prior to stimulation with 100 pg/ml of IL-1 beta) using LipofectAMINE™ protocol. PBS and LipofectAMINE™ alone served as additional controls. The cells were harvested 12-18 h after stimulation for RNA extraction. Total RNA was reverse transcribed and MMP-1 mRNA was estimated by semi-quantitative RT-PCR.
Fibroblasts over-expressing icIL-1ra type 1 were transfected with different concentrations of antisense icIL-1ra type 1 oligonucleotide (24 h prior to stimulation with IL-1β) using LipofectAMINE. PBS alone, LipofectAMINE alone and treatment with oligonucleotide having scrambled sequence served as controls. The cells were harvested 12-18 h after stimulation for RNA extraction. Total RNA was reverse transcribed and MMP-1 mRNA was estimated by real time RT-PCR. The values indicate mean±SD of three independent experiments performed on same batch of transfected geneticin selected fibroblasts (LIPO: LipofectAMINE alone, ANTIS-LIP: Antisense icIL-1ra oligonucleotide+LipofectAMINE, SCRAM-LIP: Scrambled oligonucleotide+LipofectAMINE).
Cells transfected with intracellular isoform of IL-1 receptor antagonist type 1 (HF-icIL-1ra) were treated with varying concentrations of antisense oligonucleotide directed against the intracellular isoform of IL-1 receptor antagonist type 1 mRNA. Oligonucleotide with a scrambled sequence was used as control. Both oligonucleotides were mixed with LipofectAMINE™ reagent to enhance cellular uptake.
Using the approach described in Example 5, a phosphorothioate-derivatized antisense oligodeoxynucleotide complimentary to −6 to +12 (5′-CGTCTGTAAAGGCATGGG-3′ SEQ ID NO: 41) of the natural icIL-1ra type 1 was synthesized and RHPLC purified. […]

Where [5] appears, read: IL1β (100 pg/mL) + peptide 100 ng/mL.
Setting [6] is: IL1β (100 pg/mL) + peptide 1 μg/mL.
[7] abbreviates: IL1β (100 pg/mL) + peptide 10 μg/mL.

For “LVAGYLQG (IL-1ra peptides) [SEQ ID NO: 24]”, the results for the Collagenase in the series with collagenase (MMP-1) (setting [5]), with collagenase (MMP-1) (setting [6]) and with collagenase (MMP-1) (setting [7]) were 857 ng/mL, 841 ng/mL and 749 ng/mL, respectively.
For the substance “KKKMEKRRPSGRKSSKMQAFRIWDVNQKTFYLRNNQLVAGYL (IL-1ra peptides) [NLS-IL-1ra]”, the “suppression of CIA, mean arthritic score” value in series [1] is “suppressed CIA”. Further, the Collagenase in the series with collagenase [2] (TNF alpha (5 ng/ml) + peptide 100 pg/ml) stood at 243 ng/mL; with collagenase [2] (TNF alpha (5 ng/ml) + peptide 1 ng/ml), 238 ng/mL; in the series on collagenase [2] (TNF alpha (5 ng/ml) + peptide 10 ng/ml), 1199 ng/mL; with collagenase [2] (TNF alpha (5 ng/ml) + peptide 100 ng/ml), 1254 ng/mL; with collagenase [2] (TNF alpha (5 ng/ml) + peptide 1 μg/ml), 849 ng/mL; in the series with collagenase [4] (bFGF (5 ng/ml) + peptide 100 pg/ml), 2367 ng/mL. The Collagenase in the series with collagenase [4] (bFGF (5 ng/ml) + peptide 1 ng/ml) was 2541 ng/mL; in the series with collagenase [4] (bFGF (5 ng/ml) + peptide 10 ng/ml), 3167 ng/mL; in the series on collagenase [4] (bFGF (5 ng/ml) + peptide 100 ng/ml), 3199 ng/mL; in the series with collagenase [4] (bFGF (5 ng/ml) + peptide 1 μg/ml) it was 5649 ng/mL. In addition, the “incidence and severity of arthritis” value in series [3] (osmotic pump from day 20, 50 μg peptide/day for 4 weeks, vs D5W solvent, listed as NLS-IL-1ra 1-35) is “reduced; also recorded: reduces incidence and severity of arthritis”. Moreover, the “delay of the onset of arthritis” value in series [3] (osmotic pump, incidence and severity reached control levels after this time) amounted to 20 days.
For “NNQLVAGY (IL-1ra peptides) [SEQ ID NO: 23]”, the results for the Collagenase with collagenase (MMP-1) (setting [5]), in the series with collagenase (MMP-1) (setting [6]) and with collagenase (MMP-1) (setting [7]) were 541 ng/mL, 619 ng/mL and 1078 ng/mL, respectively.
The corresponding values for “FYLRNNQLVAGYLQG (IL-1ra peptides) [SEQ ID NO: 21]” are 2142 ng/mL, 2361 ng/mL and 2581 ng/mL.
With “KKKMEKRLVAGYLQG (IL-1ra peptide) [NLS IL-1ra 30-37]”, the “suppression of CIA, mean arthritic score” value is “suppressed CIA” in series [1] (listed as NSL IL-1ra 30-37) and “effective in reducing arthritis” in series [1] (listed as NSL-sIL-1ra 30-37).
Take “RPSGRKSSKMQAFRI (IL-1ra peptides) [SEQ ID NO: 19]”: the Collagenase is 1746 ng/mL with collagenase (MMP-1) (setting [5]), 1152 ng/mL in the series with collagenase (MMP-1) (setting [6]) and 1267 ng/mL with collagenase (MMP-1) (setting [7]).
Take “5′-CGTCTGTAAAGGCATGGG-3′ (DNA, all phosphorothioate, methylation of C not given here)”: the “reduced expression of MMP-1 mRNA and protein in icIL-1ra transfected fibroblasts” value with icIL-1ra type 1 mRNA (FIG. 36) is given as “reversed”. Further, the “MMP-1 mRNA levels” value with icIL-1ra type 1 mRNA (200 mM antisense, 1.0 ng/ml hrIL-1β) is listed as “significantly higher”; in the series with icIL-1ra type 1 mRNA (300 mM antisense with LipofectAMINE, IL-1β stimulated, p=0.001), “significantly higher”.
As to “FYLRNNQ (IL-1ra peptides) [SEQ ID NO: 22]”, the results for the Collagenase in the series with collagenase (MMP-1) (setting [5]), in the series with collagenase (MMP-1) (setting [6]) and in the series on collagenase (MMP-1) (setting [7]) were 1514 ng/mL, 1827 ng/mL and 1881 ng/mL, respectively.
In the same order, the values of “MQAFRIWDVNQKTFYLR (IL-1ra peptides) [SEQ ID NO: 20]” are 2644 ng/mL, 2139 ng/mL and 2036 ng/mL.
